Experimental data published in ChEMBL document CHEMBL1126034, “Carboxylic acid replacement structure-activity relationships in suosan type sweeteners. A sweet taste antagonist. 1” (J Med Chem, 1992).

Key:
Format in all cases: functional
[1] = Compound was tested at the concentration of 3.0 mg/mL for percent sucrose intensity in aqueous sucrose solution (5.6%)
[2] = Compound was tested at the concentration of 3.0 mg/mL for percent sucrose intensity in aqueous sucrose solution (7.5%)
[3] = Compound was tested at the concentration of 2.0 mg/mL for percent sucrose intensity in aqueous sucrose solution (3.5%)
[4] = Compound was tested at the concentration of 0(ppm) for percent sucrose intensity in aspartame solution contains concentration of 1500(ppm)
[5] = Compound was tested at the concentration of 0.0 mg/mL for percent sucrose intensity in aqueous sucrose solution(5.6%)
[6] = Compound was tested at the concentration of 3.0 mg/mL for percent sucrose intensity in aqueous sucrose solution (3.5%)
[7] = Compound was tested at the concentration of 0(ppm) for percent sucrose equivalent intensity in NHDHC aqueous solution contains concentration of 250(ppm)
[8] = Compound was tested at the concentration of 4000(ppm) for percent sucrose equivalent intensity in thaumatin aqueous solution contains concentration of 40(ppm)
[9] = Compound was tested at the concentration of 4000(ppm) for bitterness rating in quinine aqueous solution contains concentration of 15(ppm)
[10] = Compound was tested at the concentration of 3.0 mg/mL for percent sucrose intensity in aqueous sucrose solution (10%)
[11] = Compound was tested at the concentration of 2000(ppm) for percent sucrose intensity in aspartame solution contains concentration of 750(ppm)
[12] = Compound was tested at the concentration of 2000(ppm) for percent sucrose intensity in aspartame solution contains concentration of 250(ppm)
[13] = Compound was tested at the concentration of 0(ppm) for percent sucrose intensity in aspartame solution contains concentration of 750(ppm)
[14] = Compound was tested at the concentration of 4000(ppm) for bitterness rating in naringin aqueous solution contains concentration of 290(ppm)
[15] = Compound was tested at the concentration of 4000(ppm) for percent sucrose equivalent intensity in sucrose aqueous solution contains concentration of 10000(ppm)
[16] = Compound was tested at the concentration of 4000(ppm) for percent sucrose intensity in aspartame solution contains concentration of 250(ppm)
[17] = Compound was tested at the concentration of 1000(ppm) for percent sucrose intensity in aspartame solution contains concentration of 3000(ppm)
[18] = Compound was tested at the concentration of 2000(ppm) for percent sucrose intensity in aspartame solution contains concentration of 2500(ppm)
[19] = Compound was tested at the concentration of 4000(ppm) for percent sucrose equivalent intensity in Na cyclamate aqueous solution contains concentration of 5000(ppm)
[20] = Compound was tested at the concentration of 1000(ppm) for percent sucrose intensity in aspartame solution contains concentration of 2500(ppm)
[21] = Compound was tested at the concentration of 3.0 mg/mL for percent sucrose intensity in aqueous sucrose solution (12.5%)
[22] = Compound was tested at the concentration of 0(ppm) for percent sucrose equivalent intensity in sucrose aqueous solution contains concentration of 10000(ppm)
[23] = Compound was tested at the concentration of 0.0 mg/mL for percent sucrose intensity in aqueous sucrose solution( 10%)
[24] = Compound was tested at the concentration of 2.0 mg/mL for percent sucrose intensity in aqueous sucrose solution (5.6%)
[25] = Compound was tested at the concentration of 0(ppm) for percent sucrose equivalent intensity in MAG aqueous solution contains concentration of 3000(ppm)
[26] = Compound was tested at the concentration of 4.0 mg/mL for percent sucrose intensity in aqueous sucrose solution (7.5%)
[27] = Compound was tested at the concentration of 0(ppm) for percent sucrose equivalent intensity in aspartame aqueous solution contains concentration of 750(ppm)
[28] = Compound was tested at the concentration of 0.0 mg/mL for percent sucrose intensity in aqueous sucrose solution(12.5%)
[29] = Compound was tested at the concentration of 1000(ppm) for percent sucrose intensity in aspartame solution contains concentration of 2000(ppm)
[30] = Compound was tested at the concentration of 0(ppm) for percent sucrose equivalent intensity in thaumatin aqueous solution contains concentration of 40(ppm)
[31] = Compound was tested at the concentration of 0(ppm) for bitterness rating in caffiene aqueous solution contains concentration of 1100(ppm)
[32] = Compound was tested at the concentration of 2000(ppm) for percent sucrose intensity in aspartame solution contains concentration of 1500(ppm)
[33] = Compound was tested at the concentration of 2.0 mg/mL for percent sucrose intensity in aqueous sucrose solution (7.5%)
[34] = Compound was tested at the concentration of 4.0 mg/mL for percent sucrose intensity in aqueous sucrose solution (3.5%)
[35] = Compound was tested at the concentration of 4000(ppm) for percent sucrose equivalent intensity in acesulfame-K aqueous solution contains concentration of 1000(ppm)
[36] = Compound was tested at the concentration of 1000(ppm) for percent sucrose intensity in aspartame solution contains concentration of 1000(ppm)
[37] = Compound was tested at the concentration of 1000(ppm) for percent sucrose intensity in aspartame solution contains concentration of 250(ppm)
[38] = Compound was tested at the concentration of 1000(ppm) for percent sucrose intensity in aspartame solution contains concentration of 500(ppm)
[39] = Compound was tested at the concentration of 4000(ppm) for percent sucrose intensity in aspartame solution contains concentration of 500(ppm)
[40] = Compound was tested at the concentration of 0(ppm) for percent sucrose intensity in aspartame solution contains concentration of 500(ppm)
[41] = Compound was tested at the concentration of 0(ppm) for percent sucrose intensity in aspartame solution contains concentration of 2000(ppm)
[42] = Compound was tested at the concentration of 0(ppm) for bitterness rating in quinine aqueous solution contains concentration of 15(ppm)
[43] = Compound was tested at the concentration of 2.0 mg/mL for percent sucrose intensity in aqueous sucrose solution (12.5%)
[44] = Compound was tested at the concentration of 4000(ppm) for percent sucrose equivalent intensity in MAG aqueous solution contains concentration of 3000(ppm)
[45] = Compound was tested at the concentration of 0.0 mg/mL for percent sucrose intensity in aqueous sucrose solution(3.5%)
[46] = Compound was tested at the concentration of 4000(ppm) for percent sucrose intensity in aspartame solution contains concentration of 3000(ppm)
[47] = Compound was tested at the concentration of 4000(ppm) for percent sucrose intensity in aspartame solution contains concentration of 1500(ppm)
[48] = Compound was tested at the concentration of 0(ppm) for percent sucrose intensity in aspartame solution contains concentration of 250(ppm)
[49] = Compound was tested at the concentration of 0(ppm) for percent sucrose equivalent intensity in acesulfame-K aqueous solution contains concentration of 1000(ppm)
[50] = Compound was tested at the concentration of 0(ppm) for percent sucrose intensity in aspartame solution contains concentration of 2500(ppm)
[51] = Compound was tested at the concentration of 2000(ppm) for percent sucrose intensity in aspartame solution contains concentration of 2000(ppm)
[52] = Compound was tested at the concentration of 4000(ppm) for percent sucrose equivalent intensity in sucralose aqueous solution contains concentration of 152(ppm)
[53] = Compound was tested at the concentration of 4.0 mg/mL for percent sucrose intensity in aqueous sucrose solution (10%)
[54] = Compound was tested at the concentration of 4000(ppm) for percent sucrose intensity in aspartame solution contains concentration of 2500(ppm)
[55] = Compound was tested at the concentration of 0(ppm) for percent sucrose intensity in aspartame solution contains concentration of 1000(ppm)
[56] = Compound was tested at the concentration of 0(ppm) for percent sucrose equivalent intensity in Na cyclamate aqueous solution contains concentration of 5000(ppm)
[57] = Compound was tested at the concentration of 2000(ppm) for percent sucrose intensity in aspartame solution contains concentration of 1000(ppm)
[58] = Compound was tested at the concentration of 4000(ppm) for percent sucrose equivalent intensity in NHDHC aqueous solution contains concentration of 250(ppm)
[59] = Compound was tested at the concentration of 4000(ppm) for percent sucrose intensity in aspartame solution contains concentration of 1000(ppm)
[60] = Compound was tested at the concentration of 0(ppm) for percent sucrose equivalent intensity in sucralose aqueous solution contains concentration of 152(ppm)
[61] = Compound was tested at the concentration of 0(ppm) for bitterness rating in naringin aqueous solution contains concentration of 290(ppm)
[62] = Compound was tested at the concentration of 4000(ppm) for percent sucrose intensity in aspartame solution contains concentration of 2000(ppm)
[63] = Compound was tested at the concentration of 4000(ppm) for percent sucrose equivalent intensity in saccharin aqueous solution contains concentration of 330(ppm)
[64] = Compound was tested at the concentration of 4000(ppm) for percent sucrose equivalent intensity in rebaudioside A aqueous solution contains concentration of 638(ppm)
[65] = Compound was tested at the concentration of 0(ppm) for percent sucrose equivalent intensity in saccharin aqueous solution contains concentration of 330(ppm)
[66] = Compound was tested at the concentration of 4000(ppm) for bitterness rating in caffiene aqueous solution contains concentration of 1100(ppm)
[67] = Compound was tested at the concentration of 4.0 mg/mL for percent sucrose intensity in aqueous sucrose solution (5.6%)
[68] = Compound was tested at the concentration of 0(ppm) for percent sucrose equivalent intensity in rebaudioside A aqueous solution contains concentration of 638(ppm)
[69] = Compound was tested at the concentration of 4000(ppm) for percent sucrose equivalent intensity in aspartame aqueous solution contains concentration of 750(ppm)
[70] = Compound was tested at the concentration of 2000(ppm) for percent sucrose intensity in aspartame solution contains concentration of 500(ppm)
[71] = Compound was tested at the concentration of 1000(ppm) for percent sucrose intensity in aspartame solution contains concentration of 1500(ppm)
[72] = Compound was tested at the concentration of 1000(ppm) for percent sucrose intensity in aspartame solution contains concentration of 750(ppm)
[73] = Compound was tested at the concentration of 4.0 mg/mL for percent sucrose intensity in aqueous sucrose solution (12.5%)
[74] = Compound was tested at the concentration of 2.0 mg/mL for percent sucrose intensity in aqueous sucrose solution (10%)
[75] = Compound was tested at the concentration of 2000(ppm) for percent sucrose intensity in aspartame solution contains concentration of 3000(ppm)
[76] = Compound was tested at the concentration of 4000(ppm) for percent sucrose intensity in aspartame solution contains concentration of 750(ppm)
[77] = Compound was tested at the concentration of 0.0 mg/mL for percent sucrose intensity in aqueous sucrose solution(7.5%)
[78] = Compound was tested at the concentration of 0(ppm) for percent sucrose intensity in aspartame solution contains concentration of 3000(ppm)

N#Cc1ccc(NC(=O)NCS(=O)(=O)O)cc1
Sweetness potency [1]: 2.2 0-15 scale | Sweetness potency [2]: 4.2 0-15 scale | Sweetness potency [3]: 2.3 0-15 scale | Sweetness potency [4]: 11.4 0-15 scale | Sweetness potency [5]: 6.1 0-15 scale | Sweetness potency [6]: 1.6 0-15 scale | Sweetness potency [7]: 8.85 0-15 scale | Sweetness potency [8]: 6.23 0-15 scale | Bitter taste intensity [9]: 5.73 0-15 scale | Sweetness potency [10]: 6.5 0-15 scale | Sweetness potency [11]: 6.24 0-15 scale | Sweetness potency [12]: 2.11 0-15 scale | Sweetness potency [13]: 9.78 0-15 scale | Bitter taste intensity [14]: 7.8 0-15 scale | Sweetness potency [15]: 3.23 0-15 scale | Sweetness potency [16]: 1.37 0-15 scale | Sweetness potency [17]: 10.7 0-15 scale | Sweetness potency [18]: 8.95 0-15 scale | Sweetness potency [19]: 6.05 0-15 scale | Sweetness potency [20]: 10.2 0-15 scale | Sweetness potency [21]: 8.6 0-15 scale | Sweetness potency [22]: 9.6 0-15 scale | Sweetness potency [23]: 10.1 0-15 scale | Sweetness potency [24]: 3.6 0-15 scale | Sweetness potency [25]: 6.97 0-15 scale | Sweetness potency [26]: 3.3 0-15 scale | Sweetness potency [27]: 9.88 0-15 scale | Sweetness potency [28]: 12.3 0-15 scale | Sweetness potency [29]: 10.5 0-15 scale | Sweetness potency [30]: 8.86 0-15 scale | Bitter taste intensity [31]: 8.48 0-15 scale | Sweetness potency [32]: 8.35 0-15 scale | Sweetness potency [33]: 4.9 0-15 scale | Sweetness potency [34]: 1.2 0-15 scale | Sweetness potency [35]: 4.59 0-15 scale | Sweetness potency [36]: 8.83 0-15 scale | Sweetness potency [37]: 3.3 0-15 scale | Sweetness potency [38]: 5.98 0-15 scale | Sweetness potency [39]: 2.57 0-15 scale | Sweetness potency [40]: 7.55 0-15 scale | Sweetness potency [41]: 12 0-15 scale | Bitter taste intensity [42]: 11.8 0-15 scale | Sweetness potency [43]: 9.3 0-15 scale | Sweetness potency [44]: 5.28 0-15 scale | Sweetness potency [45]: 4 0-15 scale | Sweetness potency [46]: 7.82 0-15 scale | Sweetness potency [47]: 6.44 0-15 scale | Sweetness potency [48]: 5.34 0-15 scale | Sweetness potency [49]: 7.88 0-15 scale | Sweetness potency [50]: 12.9 0-15 scale | Sweetness potency [51]: 9.35 0-15 scale | Sweetness potency [52]: 1.43 0-15 scale | Sweetness potency [53]: 4.5 0-15 scale | Sweetness potency [54]: 8.86 0-15 scale | Sweetness potency [55]: 10.1 0-15 scale | Sweetness potency [56]: 10.1 0-15 scale | Sweetness potency [57]: 7.34 0-15 scale | Sweetness potency [58]: 5.98 0-15 scale | Sweetness potency [59]: 5.85 0-15 scale | Sweetness potency [60]: 8.52 0-15 scale | Bitter taste intensity [61]: 10.5 0-15 scale | Sweetness potency [62]: 6.91 0-15 scale | Sweetness potency [63]: 4.06 0-15 scale | Sweetness potency [64]: 3.11 0-15 scale | Sweetness potency [65]: 8.15 0-15 scale | Bitter taste intensity [66]: 4.77 0-15 scale | Sweetness potency [67]: 1.3 0-15 scale | Sweetness potency [68]: 7.62 0-15 scale | Sweetness potency [69]: 3.87 0-15 scale | Sweetness potency [70]: 4.48 0-15 scale | Sweetness potency [71]: 9.62 0-15 scale | Sweetness potency [72]: 7.43 0-15 scale | Sweetness potency [73]: 6.4 0-15 scale | Sweetness potency [74]: 7.3 0-15 scale | Sweetness potency [75]: 9.11 0-15 scale | Sweetness potency [76]: 4.46 0-15 scale | Sweetness potency [77]: 8.5 0-15 scale | Sweetness potency [78]: 11.4 0-15 scale
